In one assay the test system is BT-474. Put plainly: Drug response (cell viability) in breast cancer cells. The note with it: BT-474 human breast cancer cells. The assay is classed as cell-based. From the text:
(§1) FIG. 16A, and FIG. 16B are graphs showing drug response to A1331852 in breast cancer (BC) cells.
(§2) Drug response to the Bcl-xL inhibitor, A-1331852, or the MEK inhibitor, Selumetinib, was compared in two types of human breast cancer cells, HCC1937 and BT-474, as shown in FIG. 16A and FIG. 16B. […] Immunofluorescence (IF) stainings of the HSBXB antibody and the Bcl-XL inhibitor, A-1331852, are shown in FIG. 17 in untreated human breast cancer cells, HCC1937 and BT-474. IF stainings and relative signal intensity were obtained from human breast cancer cells, HCC1937, treated with or without the A-1331852 inhibitor, or treated with or without the HSBXB antibody, as shown in FIG. 18.

Another assay concerns HCC1937. Described as above. The assay is classed as cell-based. The note with it: HCC1937 human breast cancer cells.
Text: as §1, §2

Another assay concerns HCC1937 cells. Description: Immunofluorescence localization of Bcl-xL and HSBXB. The note with it: IF (FIG. 19). Type of assay: cell-based, human.
Assay [1] concerns the target T1, Bcl-xL/Bim heterodimer in Bcl-xL expressing ATH66 cells (Homo sapiens, UniProt Q07817).
T1 construct: endogenous in cells; host or cells: ATH66 cells
Put plainly: Flow cytometry HSBXB/Bcl-xL signal after BH3 mimetic treatment. The assay is classed as cell-based. From the text:
FIG. 8 consists of two graphs that show how the Bcl-xL selective BH3 mimetic (A1155463) shifts the HSBXB heterodimer signal detected in cancer cells. For each series, the left bar is HSBXB signal and the right bar is total Bcl-xL. […] The term “I/C” on the x-axis of the graph refers to “isotype control.” and the term “CC” on the x-axis of the graph refers to the non-stained or “clean control.” The signal was detected using Flow Cytometry.
In these experiments, Bcl-xL expressing ATH66 cells were treated with the compound for 16 hours, then fixed with paraformaldehyde, permeabilized with non-ionic detergent and stained with HSBXB-FITC and with anti-Bcl-xL-Rhodamine. The signals were resolved using flow cytometry. The ratio of the signals provided the Bcl-xL priming index.

In a further assay the test system is SEV-Bcl-xL-Bim cells. Put plainly: Flow cytometry HSBXB/Bcl-xL signal ratio in SEV-Bcl-xL-Bim cells. Type of assay: cell-based, human. The note with it: 2 hours semi-permeabilized or 16 hours intact cells, flow cytometry (FIG. 14). The procedure:
In FIG. 14A, human seminal endothelial vesicle cells overexpressing ectopic Bcl-xL and Bim (SEV-Bcl-xL-Bim[ref]) were treated with A-1155463 at the indicated concentrations for 2 hours in semi-permeabilized cells, fixed, and then […] HSBXB or Bcl-xL antibody corrected to IgG-2A isotype. The ratio of the signals (y-axis) were collected flow cytometry. In FIG. 14B, intact SEV-Bcl-xL/Bim cells were treated with A-1155463 for 16 hours, fixed and stained as in FIG. 14A. The ratio of HSBXB and Bcl-xL signal was calculated as a percentage as shown below: […]

The target in assay [2] is T2, Bcl-xL-GST/Bim BH3 heterodimer (Homo sapiens, UniProt Q07817).
T2 construct: cloned and mutated to delete their transmembrane domains; made in house; host or cells: E. coli BL21
T2 sequence (Q07817 1-209 limits assumed, one chain of several): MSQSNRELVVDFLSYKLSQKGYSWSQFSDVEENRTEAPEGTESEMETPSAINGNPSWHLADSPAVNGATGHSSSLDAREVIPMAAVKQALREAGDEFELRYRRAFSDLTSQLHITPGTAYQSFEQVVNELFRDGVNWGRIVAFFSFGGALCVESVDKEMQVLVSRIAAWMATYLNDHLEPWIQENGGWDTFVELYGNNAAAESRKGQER
Description: ELISA, inhibition of HSBXB signal on non-covalent Bcl-xL-GST/Bim BH3 heterodimer. The assay is classed as binding. The note with it: heterodimers formed with peptide comprising the BH3 domain of Bim; compound added after peptides, before antibody.
Description: (§3) To further characterize HSBXB, the antibody was assessed under conditions where Bcl-xL/Bim binding, mediated by the BH3 domain of Bim, was inhibited. […] In the experiment shown in FIG. 13A, Bcl-xL-GST was bound to glutathione-coated ELISA plates. Bim-BH3 peptide was then added, or not added as a control, and HSBXB antibody was used to detect complex formation. […] Non-covalent Bcl-xL-GST/Bim BH3 heterodimer was bound to glutathione-coated ELISA plates and treated with ABT-263. ABT-263 was then added to the ELISA plates after addition of peptides and before adding the monoclonal antibody.

Assay [3] addresses T3, Bcl-xL-GST/Full length BIM protein (Homo sapiens, UniProt Q07817).
T3 construct: cloned and mutated to delete their transmembrane domains; made in house; host or cells: E. coli BL21
Description: ELISA, inhibition of HSBXB signal on Bcl-xL-GST/full length BIM heterodimer. Type of assay: binding. The note with it: heterodimers formed with full length Bim protein.
Description: The compound was added to the ELISA plates after addition of peptides and before adding the monoclonal antibody.
as §3

T1 sequence (Q07817 whole entry, species assumed, one chain of several): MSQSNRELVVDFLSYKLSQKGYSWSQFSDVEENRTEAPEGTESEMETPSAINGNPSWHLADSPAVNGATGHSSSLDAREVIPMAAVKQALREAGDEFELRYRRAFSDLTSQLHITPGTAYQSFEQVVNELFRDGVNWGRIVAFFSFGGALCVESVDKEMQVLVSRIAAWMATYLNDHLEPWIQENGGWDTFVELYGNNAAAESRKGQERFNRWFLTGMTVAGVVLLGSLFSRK
T3 sequence (Q07817 1-209 limits assumed): as the sequence (Q07817 1-209 limits assumed, one chain of several) above
Description for HCC1937 cells: A quantitative analysis was performed using the software Zen 2011 (Blue edition, Carl Zeiss). For each panel, the bar at the far left is Mito-BCL-XL, the next bar is Mito-HSBXB, the next bar is Bcl-XL-HSBXB, the next bar is Bcl-XL-DAPI, and the bar on the far right is HSBXB-DAPI. […] Immunofluorescence (IF) stainings of the HSBXB antibody and the Bcl-XL inhibitor, A-1331852, are shown in FIG. 17 in untreated human breast cancer cells, HCC1937 and BT-474. IF stainings and relative signal intensity were obtained from human breast cancer cells, HCC1937, treated with or without the A-1331852 inhibitor, or treated with or without the HSBXB antibody, as shown in FIG. 18.

Regarding `Cc1c(-c2ccc(N3CCc4cccc(C(=O)Nc5nc6ccccc6s5)c4C3)nc2C(=O)O)cnn1CC12CC3CC(CC(C3)C1)C2` [A-1331852], the cell viability result with BT-474 and with HCC1937 was “decrease in cell viability” in each case. The “localization of Bcl-xL and HSBXB” value with HCC1937 cells is “Changes in the localization of Bcl-xL and HSBXB”.

`CN(C)CC#Cc1ccc(OCCCc2sc(N3CCc4cccc(C(=O)Nc5nc6ccccc6s5)c4C3)nc2C(=O)O)c(F)c1` [A-1155463]: in assay [1] (ATH66 cells treated for 16 hours, flow cytometry), the “Bcl-xL priming index (ratio of HSBXB-FITC and anti-Bcl-xL-Rhodamine signals)” value is “diminish over a time course that coincided with the occurrence of apoptosis”. Also, in assay [1] (sub-lethal dose, 16 hours, flow cytometry (FIG. 8)), the HSBXB heterodimer signal entry was “lose signal after 16 hours”. For the same compound, the “HSBXB signal (ratio of HSBXB and Bcl-xL signal)” value with SEV-Bcl-xL-Bim cells is listed as “HSBXB signal shifts”.

`CC1(C)CCC(c2ccc(Cl)cc2)=C(CN2CCN(c3ccc(C(=O)NS(=O)(=O)c4ccc(N[C@H](CCN5CCOCC5)CSc5ccccc5)c(S(=O)(=O)C(F)(F)F)c4)cc3)CC2)C1` [ABT-263]: the “inhibition of heterodimer antibody (HSBXB) signal” value in assay [2] and in assay [3] was “dose-dependent inhibition of heterodimer antibody signal” in each case.

Values taken from patent publication US20200348280A1, “METHODS FOR PREDICTING CANCER DRUG RESPONSIVENESS” (Eutropics Pharmaceuticals, Inc., priority 2018, published 2020).
